Source: US8802597B2, “Herbicidal pyrimidines” (E I du Pont de Nemours and Company, priority 2003, dated 2014)

What was measured:
Format in all cases: in vivo
[1] = system: Surinam grass (Brachiaria decumbens); experiment: Test B pre/postemergence
Method in brief: (§1)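 Under greenhouse conditions, seeded pots and young plants (1- to 4-leaf, 2 to 18 cm) were treated at the same time with test chemicals in a non-phytotoxic solvent mixture containing surfactant. Response was assessed visually after 13 to 15 days, from 0 (no effect) to 100 (complete control).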

[2] = system: barnyardgrass (Echinochloa crus-galli); experiment: Test B pre/postemergence
Method in brief: as §1

[3] = system: cocklebur (Xanthium strumarium); experiment: Test B pre/postemergence
Method in brief: as §1

corn (Zea mays) = experiment: Test B pre/postemergence
Method in brief: as §1

[4] = system: crabgrass (Digitaria sanguinalis); experiment: Test B pre/postemergence
Method in brief: as §1

[5] = system: giant foxtail (Setaria faberii); experiment: Test B pre/postemergence
Method in brief: as §1

[6] = system: lambsquarters (Chenopodium album); experiment: Test B pre/postemergence
Method in brief: as §1

[7] = system: morningglory (Ipomoea coccinea); experiment: Test B pre/postemergence
Method in brief: as §1

[8] = system: pigweed (Amaranthus retroflexus); experiment: Test B pre/postemergence
Method in brief: as §1

[9] = system: velvetleaf (Abutilon theophrasti); experiment: Test B pre/postemergence
Method in brief: as §1

[10] = system: wheat (Triticum aestivum); experiment: Test B pre/postemergence
Method in brief: as §1

[11] = system: blackgrass (Alopecurus myosuroides); experiment: Test B postemergence
Method in brief: as §1

wild oat (Avena fatua) = experiment: Test B postemergence
Method in brief: as §1

[12] = system: barnyardgrass (Echinochloa crus-galli); experiment: Test B flooded paddy test; details: Flood, 1000 g ai/ha; scale 0 (no effect) to 100 (complete control)
Method in brief: (§2)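 Plants were grown to the 2-leaf stage before treatment, then kept in a greenhouse for 13 to 15 days. Injury was rated visually against untreated controls on a 0 to 100 scale, where 0 is no effect and 100 is complete control.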

[13] = system: duck salad (Heteranthera limosa); experiment: Test B flooded paddy test; details: Flood, 1000 g ai/ha; scale 0 to 100
Method in brief: as §2

rice (Oryza sativa) = experiment: Test B flooded paddy test; details: Flood, 1000 g ai/ha; scale 0 to 100
Method in brief: as §2

[14] = system: umbrella sedge (Cyperus difformis); experiment: Test B flooded paddy test; details: Flood, 1000 g ai/ha; scale 0 to 100
Method in brief: as §2

[15] = Postemergence, 125 g ai/ha, scale 0 to 100 (0 no effect, 100 complete control)
[16] = Postemergence, 500 g ai/ha, scale 0 to 100
[17] = Preemergence, 125 g ai/ha, scale 0 to 100 (0 no effect, 100 complete control)
[18] = Preemergence, 500 g ai/ha, scale 0 to 100 (0 no effect, 100 complete control)
[19] = 125 g ai/ha, scale 0 to 100 (0 no effect, 100 complete control)

COC(=O)c1nc(C2CC2)nc(N=CN(C)C)c1Br [Compound 19]
Surinam Grass plant response rating [1, 15]: 40
Plant response rating, Surinam Grass [1, 16]: 90
Plant response rating, Surinam Grass [1, 17]: 60
Surinam Grass plant response rating [1, 18]: 90
Barnyardgrass plant response rating [2, 15]: 80
Plant response rating, Barnyardgrass [2, 16]: 90
Plant response rating, Barnyardgrass [2, 17]: 40
Barnyardgrass plant response rating [2, 18]: 90
Cocklebur plant response rating [3, 15]: 90
Plant response rating, Cocklebur [3, 16]: 100
Plant response rating, Cocklebur [3, 17]: 90
Cocklebur plant response rating [3, 18]: 100
Corn plant response rating (corn (Zea mays); [15]): 30
Plant response rating, Corn (corn (Zea mays); [16]): 70
Plant response rating, Corn (corn (Zea mays); [17]): 70
Corn plant response rating (corn (Zea mays); [18]): 90
Crabgrass plant response rating [4, 15]: 40
Plant response rating, Crabgrass [4, 16]: 80
Plant response rating, Crabgrass [4, 17]: 80
Crabgrass plant response rating [4, 18]: 90
Foxtail, Giant plant response rating [5, 15]: 20
Plant response rating, Foxtail, Giant [5, 16]: 80
Plant response rating, Foxtail, Giant [5, 17]: 20
Foxtail, Giant plant response rating [5, 18]: 80
Lambsquarters plant response rating [6, 15]: 100
Plant response rating, Lambsquarters [6, 16]: 100
Plant response rating, Lambsquarters [6, 17]: 100
Lambsquarters plant response rating [6, 18]: 100
Morningglory plant response rating [7, 15]: 100
Plant response rating, Morningglory [7, 16]: 100
Plant response rating, Morningglory [7, 17]: 90
Morningglory plant response rating [7, 18]: 100
Pigweed plant response rating [8, 15]: 90
Plant response rating, Pigweed [8, 16]: 100
Plant response rating, Pigweed [8, 17]: 90
Pigweed plant response rating [8, 18]: 100
Velvetleaf plant response rating [9, 15]: 70
Plant response rating, Velvetleaf [9, 16]: 100
Plant response rating, Velvetleaf [9, 17]: 90
Velvetleaf plant response rating [9, 18]: 100
Wheat plant response rating [10, 15]: 20
Plant response rating, Wheat [10, 16]: 60
Plant response rating, Wheat [10, 17]: 50
Wheat plant response rating [10, 18]: 60
Blackgrass plant response rating [11, 19]: 60
Plant response rating, Blackgrass ([11]; 500 g ai/ha, scale 0 to 100): 80
Oat, Wild plant response rating (wild oat (Avena fatua); [19]): 40
Plant response rating, Oat, Wild (wild oat (Avena fatua); 500 g ai/ha, scale 0 to 100): 70
Plant response rating, Barnyardgrass [12]: 80
Plant response rating, Ducksalad [13]: 80
Plant response rating, Rice (rice (Oryza sativa)): 60
Plant response rating, Sedge, Umbrella [14]: 70
